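48-hour exposure; five concentrations; linearly interpolated endpoints. GI50 is the concentration that inhibits growth by half.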 The source made the active and inactive calls. Cut-off read from the data, not from the text of the source: active = GI50 up to about 1.1 µM and inactive = higher.
How the values were obtained:
Test in all cases: NCI anticancer screen, dose series, 48 h
[1] = system: 786-0
[2] = system: A498
[3] = system: A549
[4] = system: ACHN
[5] = system: BT-549
[6] = system: CAKI-1
[7] = system: CCRF-CEM
[8] = system: COLO 205
[9] = system: DU-145
[10] = system: EKVX
[11] = system: HCC 2998
[12] = system: HCT-116
[13] = system: HCT-15
[14] = system: HL-60
[15] = system: HOP-62
[16] = system: HOP-92
[17] = system: HT-29
[18] = system: Hs-578T
[19] = system: IGROV-1
[20] = system: K562
[21] = system: LOX IMVI
[22] = system: M14
[23] = system: MCF7
[24] = system: MDA-MB-231
[25] = system: MDA-MB-435
[26] = system: MDA-N
[27] = system: MOLT-4
[28] = system: Malme-3M
[29] = system: NCI-H226
[30] = system: NCI-H23
[31] = system: NCI-H460
[32] = system: NCI-H522
[33] = system: NCI/ADR-RES
[34] = system: OVCAR-3
[35] = system: OVCAR-4
[36] = system: OVCAR-5
[37] = system: OVCAR-8
[38] = system: RPMI-8226
[39] = system: RXF 393
[40] = system: SF-268
[41] = system: SF-295
[42] = system: SF-539
[43] = system: SK-MEL-28
[44] = system: SK-MEL-2
[45] = system: SK-MEL-5
[46] = system: SK-OV-3
[47] = system: SN12C
[48] = system: SNB-19
[49] = system: SNB-75
[50] = system: SR
[51] = system: SW-620
[52] = system: T47D
[53] = system: TK-10
[54] = system: U-251
[55] = system: UACC-257
[56] = system: UACC-62
[57] = system: UO-31
[58] = system: KM12
[59] = system: PC-3

COc1ccc(-c2cc(=O)c3c(OC)c(OC)c(OC)c(OC)c3o2)cc1OC [NOBILETIN]
GI50 [1]: 49.9 µM (inactive) | GI50 [2]: 25.2 µM (inactive) | GI50 [3]: 42.8 µM (inactive) | GI50 [4]: 37.3 µM (inactive) | GI50 [5]: 62.7 µM (inactive) | GI50 [6]: 29.4 µM (inactive) | GI50 [7]: 65.6 µM (inactive) | GI50 [8]: 35 µM (inactive) | GI50 [9]: 61.1 µM (inactive) | GI50 [10]: 56.2 µM (inactive) | GI50 [11]: 32.7 µM (inactive) | GI50 [12]: 72.4 µM (inactive) | GI50 [13]: 26.5 µM | GI50 [14]: 17.3 µM (inactive) | GI50 [15]: 44.7 µM (inactive) | GI50 [16]: 18.3 µM (inactive) | GI50 [17]: 32.1 µM (inactive) | GI50 [18]: 21.1 µM (inactive) | GI50 [19]: 49.2 µM (inactive) | GI50 [20]: 36.3 µM (inactive) | GI50 [21]: 30.1 µM (inactive) | GI50 [22]: 55.8 µM (inactive) | GI50 [23]: 4.86 µM (inactive) | GI50 [24]: 34.5 µM (inactive) | GI50 [25]: 45.1 µM (inactive) | GI50 [26]: 49.9 µM (inactive) | GI50 [27]: 25.2 µM (inactive) | GI50 [28]: > 100 µM (inactive) | GI50 [29]: 91.6 µM (inactive) | GI50 [30]: 47.1 µM (inactive) | GI50 [31]: 52.8 µM (inactive) | GI50 [32]: 28.6 µM (inactive) | GI50 [33]: 20.3 µM (inactive) | GI50 [34]: 24.7 µM (inactive) | GI50 [35]: 28 µM (inactive) | GI50 [36]: > 100 µM (inactive) | GI50 [37]: 29.6 µM (inactive) | GI50 [38]: 39.8 µM (inactive) | GI50 [39]: 61.5 µM (inactive) | GI50 [40]: 66.8 µM (inactive) | GI50 [41]: 32.5 µM (inactive) | GI50 [42]: > 100 µM (inactive) | GI50 [43]: > 100 µM (inactive) | GI50 [44]: 49.4 µM (inactive) | GI50 [45]: 18.6 µM (inactive) | GI50 [46]: 61.7 µM (inactive) | GI50 [47]: 41.5 µM (inactive) | GI50 [48]: > 100 µM (inactive) | GI50 [49]: 30.5 µM (inactive) | GI50 [50]: 59.7 µM (inactive) | GI50 [51]: 47.5 µM (inactive) | GI50 [52]: 19.5 µM (inactive) | GI50 [53]: 50.1 µM (inactive) | GI50 [54]: 71 µM (inactive) | GI50 [55]: 33.5 µM (inactive) | GI50 [56]: 25.6 µM (inactive) | GI50 [57]: 24.7 µM (inactive)

CCCCCCCC(=O)NC(C)(C)C(=O)NCC(=O)NC(CC(C)C)C(=O)NC(C)(C)C(=O)NCC(=O)NCC(=O)NC(CC(C)C)C(=O)NC(C)(C)C(=O)NCC(=O)NC(C(=O)NC(CO)CC(C)C)C(C)CC (configuration not stated)
GI50 [1]: 4.61 µM (inactive) | GI50 [3]: 4.36 µM (inactive) | GI50 [4]: 5 µM (inactive) | GI50 [5]: 3.59 µM (inactive) | GI50 [6]: 4.12 µM (inactive) | GI50 [7]: 4.26 µM (inactive) | GI50 [8]: 3.81 µM (inactive) | GI50 [9]: 4.55 µM (inactive) | GI50 [10]: 3.63 µM (inactive) | GI50 [11]: 4.29 µM (inactive) | GI50 [12]: 3.78 µM (inactive) | GI50 [13]: 4.86 µM | GI50 [15]: 4.28 µM (inactive) | GI50 [16]: 3.15 µM (inactive) | GI50 [17]: 4.05 µM (inactive) | GI50 [18]: 4.42 µM (inactive) | GI50 [19]: 3.84 µM (inactive) | GI50 [20]: 3.21 µM (inactive) | GI50 [58]: 1.41 µM (inactive) | GI50 [21]: 3.53 µM (inactive) | GI50 [22]: 4.21 µM (inactive) | GI50 [24]: 4 µM (inactive) | GI50 [25]: 3.94 µM (inactive) | GI50 [26]: 4 µM (inactive) | GI50 [27]: 3.73 µM (inactive) | GI50 [28]: 4.82 µM (inactive) | GI50 [29]: 4.5 µM (inactive) | GI50 [30]: 3.93 µM (inactive) | GI50 [31]: 4.48 µM (inactive) | GI50 [32]: 3.87 µM (inactive) | GI50 [33]: 4.83 µM (inactive) | GI50 [34]: 3.11 µM (inactive) | GI50 [35]: 4.01 µM (inactive) | GI50 [36]: 3.66 µM (inactive) | GI50 [37]: 4.21 µM (inactive) | GI50 [59]: 3.77 µM (inactive) | GI50 [38]: 0.935 µM (active) | GI50 [39]: 4.05 µM (inactive) | GI50 [40]: 4.11 µM (inactive) | GI50 [41]: 4.26 µM (inactive) | GI50 [43]: 3.72 µM (inactive) | GI50 [44]: 2.82 µM (inactive) | GI50 [45]: 3.85 µM (inactive) | GI50 [46]: 4.2 µM (inactive) | GI50 [47]: 4.28 µM (inactive) | GI50 [48]: 3.57 µM (inactive) | GI50 [49]: 3.64 µM (inactive) | GI50 [50]: 3.99 µM (inactive) | GI50 [51]: 4.02 µM (inactive) | GI50 [52]: 3.14 µM (inactive) | GI50 [53]: 4.66 µM (inactive) | GI50 [54]: 2.39 µM (inactive) | GI50 [55]: 4.41 µM (inactive) | GI50 [56]: 4.14 µM (inactive) | GI50 [57]: 4.3 µM (inactive)

Reference: ChEMBL document CHEMBL1201862, “PubChem BioAssay data set” (2004)
